| Structure (SMILES) | melting point |
| --- | --- |
| Cc1cc(-c2ccc(Cl)cc2)cc(-n2cnc(-c3ccc(N)nc3)c2)n1 [Example 80, 5-{1-[4-(4-Chloro-phenyl)-6-methyl-pyridin-2-yl]-1H-imidazol-4-yl}-pyridin-2-ylamine] | 230 to 233 °C |
| Cc1cc(-c2ccc(Cl)cc2)cc(-c2cncc(-c3ccc(N)nc3)c2)n1 [Example 81, 4-(4-Chloro-phenyl)-6-methyl-[2,3′;5′,3″]terpyridin-6″-ylamine] | 188 to 192 °C |
| Cc1cc(-c2ccc(Cl)cc2)cc(-c2cccc(-c3cnc(N)nc3)c2)n1 [Example 82, 5-{3-[4-(4-Chloro-phenyl)-6-methyl-pyridin-2-yl]-phenyl}-pyrimidin-2-ylamine] | 197 to 199 °C |
| NS(=O)(=O)c1cccc(-c2cccc(-c3cc(C(F)(F)F)cc(-c4ccc(C(F)(F)F)cc4)n3)c2)c1 [Example 83, 3′-[4-Trifluoromethyl-6-(4-trifluoromethyl-phenyl)-pyridin-2-yl]-biphenyl-3-sulfonic acid amide] | 176 to 179 °C |
| FC(F)(F)c1cc(-c2ccc(Cl)cc2)nc(-c2ccnc(-c3cccnc3)c2)n1 [Example 84, 4-[4-(4-Chloro-phenyl)-6-trifluoromethyl-pyrimidin-2-yl]-[2,3]bipyridinyl] | 226 °C |
| FC(F)(F)c1ccc(-c2cc(C(F)(F)F)nc(-c3ccnc(-c4cccnc4)c3)n2)cc1 [Example 85, 4-[4-Trifluoromethyl-6-(4-trifluoromethyl-phenyl)-pyrimidin-2-yl]-[2,3′]bipyridinyl] | 247 °C |
| FC(F)(F)c1cc(-c2ccc(Cl)cc2)nc(-c2ccnc(-c3ccncc3)c2)n1 [Example 86, 4-[4-(4-Chloro-phenyl)-6-trifluoromethyl-pyrimidin-2-yl]-[2,4′]bipyridinyl] | 193 °C |
| Nc1ccc(-c2cc(-c3nc(-c4ccc(C(F)(F)F)cc4)cc(C(F)F)n3)ccn2)cn1 [Example 88, 4-[4-Difluoromethyl-6-(4-trifluoromethyl-phenyl)-pyrimidin-2-yl]-[2,3′]bipyridinyl-6′-ylamine] | 210 °C |
| CC(=O)Nc1ccc(-c2cn(-c3nc(-c4ccc(C(F)(F)F)cc4)cc(C(F)(F)F)n3)cn2)cn1 [Example 95, N-(5-{1-[4-Trifluoromethyl-6-(4-trifluoromethyl-phenyl)-pyrimidin-2-yl]-1H-imidazol-4-yl}-pyridin-2-yl)-acetamide] | 314 °C |
| Nc1ccc(-c2cccc(-c3nc(-c4ccc(Cl)c(Cl)c4)cc(C(F)(F)F)n3)c2)cn1 [Example 97, 5-{3-[4-(3,4-Dichloro-phenyl)-6-trifluoromethyl-pyrimidin-2-yl]-phenyl}-pyridin-2-ylamine] | 179 °C |
| Nc1ccc(-c2cn(-c3nc(-c4ccc(Cl)c(Cl)c4)cc(C(F)(F)F)n3)cn2)cn1 [Example 102, 5-{1-[4-(3,4-Dichloro-phenyl)-6-trifluoromethyl-pyrimidin-2-yl]-1H-imidazol-4-yl}-pyridin-2-ylamine] | 282.5 °C |
| Cc1cc(-c2cc(C(F)(F)F)nc(-n3cnc(-c4ccc(N)nc4)c3)n2)ccc1Cl [Example 104, 5-{1-[4-(4-Chloro-3-methyl-phenyl)-6-trifluoromethyl-pyrimidin-2-yl]-1H-imidazol-4-yl}-pyridin-2-ylamine] | 276 °C |
| Cc1cc(-c2cc(C(F)(F)F)nc(-c3cccc(-c4ccc(N)nc4)c3)n2)ccc1Cl [Example 105, 5-{3-[4-(4-Chloro-3-methyl-phenyl)-6-trifluoromethyl-pyrimidin-2-yl]-phenyl}-pyridin-2-ylamine] | 168.5 °C |
| Cc1cc(-c2cc(C(F)(F)F)nc(-c3ccnc(-c4ccc(N)nc4)c3)n2)ccc1Cl [Example 108, 4-[4-(4-Chloro-3-methyl-phenyl)-6-trifluoromethyl-pyrimidin-2-yl]-[2,3′]bipyridinyl-6′-ylamine] | 207 °C |
| Cc1cc(-c2ccc(Cl)cc2)nc(-c2cccc(-c3ccc(N)nc3)c2)n1 [Example 109, 5-{3-[4-(4-Chloro-phenyl)-6-methyl-pyrimidin-2-yl]-phenyl}-pyridin-2-ylamine] | 168.5 °C |
| Cc1cc(-c2ccc(Cl)cc2)nc(-c2cccc(-c3cnc(N)nc3)c2)n1 [Example 110, 5-{3-[4-(4-Chloro-phenyl)-6-methyl-pyrimidin-2-yl]-phenyl}-pyrimidin-2-ylamine] | 228 °C |
| Nc1ccc(-c2cn(-c3nc(-c4ccc(C(F)(F)F)cc4)cc(C(F)(F)F)n3)cn2)cc1 [Example 111, 4-{1-[4-Trifluoromethyl-6-(4-trifluoromethyl-phenyl)-pyrimidin-2-yl]-1H-imidazol-4-yl}-phenylamine] | 270 °C |
| Cc1cc(-c2ccc(Cl)cc2)nc(-c2ccnc(-c3ccc(N)nc3)c2)n1 [Example 112, 4-[4-(4-Chloro-phenyl)-6-methyl-pyrimidin-2-yl]-[2,3′]bipyridinyl-6′-ylamine] | 199 °C |
| Cc1cc(-c2ccc(C(F)(F)F)cc2)nc(-c2ccnc(-c3ccc(N)nc3)c2)n1 [Example 113, 4-[4-Methyl-6-(4-trifluoromethyl-phenyl)-pyrimidin-2-yl]-[2,3′]bipyridinyl-6′-ylamine] | 232 °C |
| Cc1cc(-c2ccc(C(F)(F)F)cc2)nc(-c2cccc(-c3cnc(N)nc3)c2)n1 [Example 115, 5-{3-[4-Methyl-6-(4-trifluoromethyl-phenyl)-pyrimidin-2-yl]-phenyl}-pyrimidin-2-ylamine] | 290 °C |
| Cc1cc(-c2ccc(C(F)(F)F)cc2)nc(-c2cccc(-c3ccc(N)nc3)c2)n1 [Example 116, 5-{3-[4-Methyl-6-(4-trifluoromethyl-phenyl)-pyrimidin-2-yl]-phenyl}-pyridin-2-ylamine] | 224 °C |
| Nc1ccc(-c2cccc(-c3nc(-c4ccc(C(F)(F)F)cc4)cc(C(F)(F)F)n3)c2)cc1 [Example 117, 3′-[4-Trifluoromethyl-6-(4-trifluoromethyl-phenyl)-pyrimidin-2-yl]-biphenyl-4-ylamine] | 186 °C |

Further lines, results first:

| melting point | Structure (SMILES) |
| --- | --- |
| 266.5 °C | CCOc1cc(-c2cc(C(F)(F)F)nc(-n3cnc(-c4ccc(N)nc4)c3)n2)ccc1C(F)(F)F [Example 87, 5-{1-[4-(3-Ethoxy-4-trifluoromethyl-phenyl)-6-trifluoromethyl-pyrimidin-2-yl]-1H-imidazol-4-yl}-pyridin-2-ylamine] |
| 250.5 °C | CCOc1cc(-c2cc(C(F)(F)F)nc(-c3nc(-c4ccc(S(N)(=O)=O)cc4)no3)n2)ccc1C(F)(F)F [Example 89, 4-{5-[4-(3-Ethoxy-4-trifluoromethyl-phenyl)-6-trifluoromethyl-pyrimidin-2-yl]-[1,2,4]oxadiazol-3-yl}-benzenesulfonamide] |
| 227 °C | CCOc1cc(-c2cc(C(F)(F)F)nc(-c3nc(-c4cccc(S(N)(=O)=O)c4)no3)n2)ccc1C(F)(F)F [Example 91, 3-{5-[4-(3-Ethoxy-4-trifluoromethyl-phenyl)-6-trifluoromethyl-pyrimidin-2-yl]-[1,2,4]oxadiazol-3-yl}-benzenesulfonamide] |
| 222 °C | CCOc1cc(-c2cc(C(F)(F)F)nc(-c3ccnc(-c4ccc(N)nc4)c3)n2)ccc1C(F)(F)F [Example 92, 4-[4-(3-Ethoxy-4-trifluoromethyl-phenyl)-6-trifluoromethyl-pyrimidin-2-yl]-[2,3′]bipyridinyl-6′-ylamine] |
| 208 °C | CCOc1cc(-c2cc(C(F)(F)F)nc(-c3cccc(-c4ccc(N)nc4)c3)n2)ccc1C(F)(F)F [Example 93, 5-{3-[4-(3-Ethoxy-4-trifluoromethyl-phenyl)-6-trifluoromethyl-pyrimidin-2-yl]-phenyl}-pyridin-2-ylamine] |
| 309 °C | Nc1ccc(-c2cn(-c3nc(-c4ccc(C(F)(F)F)c(F)c4)cc(C(F)(F)F)n3)cn2)cn1 [Example 94, 5-{1-[4-(3-Fluoro-4-trifluoromethyl-phenyl)-6-trifluoromethyl-pyrimidin-2-yl]-1H-imidazol-4-yl}-pyridin-2-ylamine] |
| 212 °C | Nc1ccc(-c2cccc(-c3nc(-c4ccc(C(F)(F)F)c(F)c4)cc(C(F)(F)F)n3)c2)cn1 [Example 96, 5-{3-[4-(3-Fluoro-4-trifluoromethyl-phenyl)-6-trifluoromethyl-pyrimidin-2-yl]-phenyl}-pyridin-2-ylamine] |
| 302.5 °C | NS(=O)(=O)c1ccc(-c2noc(-c3nc(-c4ccc(Cl)c(Cl)c4)cc(C(F)(F)F)n3)n2)cc1 [Example 98, 4-{5-[4-(3,4-Dichloro-phenyl)-6-trifluoromethyl-pyrimidin-2-yl]-[1,2,4]oxadiazol-3-yl}-benzenesulfonamide] |
| 258 °C | NS(=O)(=O)c1cccc(-c2noc(-c3nc(-c4ccc(Cl)c(Cl)c4)cc(C(F)(F)F)n3)n2)c1 [Example 99, 3-{5-[4-(3,4-Dichloro-phenyl)-6-trifluoromethyl-pyrimidin-2-yl]-[1,2,4]oxadiazol-3-yl}-benzenesulfonamide] |
| 227 °C | Nc1ccc(-c2noc(-c3nc(-c4ccc(Cl)c(Cl)c4)cc(C(F)(F)F)n3)n2)cn1 [Example 100, 5-{5-[4-(3,4-Dichloro-phenyl)-6-trifluoromethyl-pyrimidin-2-yl]-[1,2,4]oxadiazol-3-yl}-pyridin-2-ylamine] |
| 236.5 °C | Nc1ccc(-c2nccc(-c3nc(-c4ccc(C(F)(F)F)cc4)cc(C(F)(F)F)n3)n2)cn1 [Example 101, 5-[6-Trifluoromethyl-4-(4-trifluoromethyl-phenyl)-[2,4′]bipyrimidinyl-2′-yl]-pyridin-2-ylamine] |
| 246 °C | Cc1cc(-c2cc(C(F)(F)F)nc(-c3nc(-c4cccc(S(N)(=O)=O)c4)no3)n2)ccc1Cl [Example 106, 3-{5-[4-(4-Chloro-3-methyl-phenyl)-6-trifluoromethyl-pyrimidin-2-yl]-[1,2,4]oxadiazol-3-yl}-benzenesulfonamide] |
| 199.5 °C | Cc1cc(-c2cc(C(F)(F)F)nc(-c3nc(-c4ccc(N)nc4)no3)n2)ccc1Cl [Example 107, 5-{5-[4-(4-Chloro-3-methyl-phenyl)-6-trifluoromethyl-pyrimidin-2-yl]-[1,2,4]oxadiazol-3-yl}-pyridin-2-ylamine] |

— patent US8183262B2, “Pyridine derivatives as mGluR2 antagonists” (Hoffmann-La Roche Inc., priority 2007, dated 2012)
